Earlier results in patent US20250369953A1, “METHODS FOR MEASURING CIRCADIAN RHYTHM FACTORS” (priority 2024, published 2025).

- peak plasma concentrations (endogenous, nighttime sleep, occurring at approximately 02:00 am): approximately 70 μg/ml
- metabolic clearance (healthy young adult humans): approximately 1 liter per minute
- volume of distribution (healthy young adult humans): approximately 40 liters
SMILES: COc1ccc2[nH]cc(CCNC(C)=O)c2c1 [Melatonin, N-acetyl-5-methoxytryptamine]
